In assay [1] the target is T1, hETF (human electron-transferring flavoprotein) (Homo sapiens, UniProt P13804+P38117, P38117:E165A).
T1 construct: gene ETFA; mature heterodimer from E. coli BL21(DE3), pET-28a+ operon; alpha from Gln-20; N-terminal His6 on beta (tag kept)
T1 sequence (P13804 20-333): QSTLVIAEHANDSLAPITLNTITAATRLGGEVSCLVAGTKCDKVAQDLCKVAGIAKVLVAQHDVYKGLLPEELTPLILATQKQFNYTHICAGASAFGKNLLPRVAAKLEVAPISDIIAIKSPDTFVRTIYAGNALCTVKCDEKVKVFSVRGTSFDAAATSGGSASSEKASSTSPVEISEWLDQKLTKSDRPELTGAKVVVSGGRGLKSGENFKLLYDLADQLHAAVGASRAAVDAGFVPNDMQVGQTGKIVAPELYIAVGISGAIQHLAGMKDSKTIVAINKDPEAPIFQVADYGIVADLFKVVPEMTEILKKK
T1 sequence (P38117 1-255 E165A): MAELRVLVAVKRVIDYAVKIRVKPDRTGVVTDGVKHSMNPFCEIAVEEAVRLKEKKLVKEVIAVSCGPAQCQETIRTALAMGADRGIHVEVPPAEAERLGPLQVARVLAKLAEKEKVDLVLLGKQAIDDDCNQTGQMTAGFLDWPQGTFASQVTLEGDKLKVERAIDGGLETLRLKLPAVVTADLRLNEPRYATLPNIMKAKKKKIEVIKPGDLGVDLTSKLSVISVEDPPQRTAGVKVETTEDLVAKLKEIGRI
Description: UV-visible absorption; steady-state kinetics of the FAD form. As to conditions: purified at pH 7.0.

In assay [2] the target is T2, hETF (human electron-transferring flavoprotein) (Homo sapiens, UniProt P13804+P38117, P13804:H286A).
T2 construct: gene ETFA; mature heterodimer from E. coli BL21(DE3), pET-28a+ operon; alpha from Gln-20; N-terminal His6 on beta (tag kept)
T2 sequence (P13804 20-333 H286A): T1 sequence (P13804 20-333) with H267A
T2 sequence (P38117 1-255): T1 sequence (P38117 1-255 E165A) with A165E
Description: HPLC analysis of extracted cofactor. Format: binding. Particulars: purified at pH 7.0.

SMILES strings stand for the structures. Positions count from the first letter of the chain named.

For `Cc1cc2nc3c(=O)[nH]c(=O)nc-3n(C[C@H](O)[C@H](O)[C@H](O)COP(=O)(O)OP(=O)(O)OC[C@H]3O[C@@H](n4cnc5c(N)ncnc54)[C@H](O)[C@@H]3O)c2cc1C` [FAD], in assay [1], the “UV-visible absorption; steady-state kinetics of the FAD form” value was “FAD formylation was absent in the freshly purified variant βE165A”. In assay [2], the “HPLC analysis of extracted cofactor” value is recorded as “the FAD cofactor was bound weakly to the αH286A variant”.

The values above are taken from article PMC5827430, “Oxidation of the FAD cofactor to the 8-formyl-derivative in human electron-transferring flavoprotein” (The Journal of Biological Chemistry, 2018).
